Experimental data from ChEMBL document CHEMBL4033638, “Effect of natural and semi-synthetic cadinanes from Heterotheca inuloides on NF-κB, Nrf2 and STAT3 signaling pathways and evaluation of their in vitro cytotoxicity in human cancer cell lines” (Bioorg Med Chem, 2017).
Activity calls are given as the source filed them. The calls are words filed in the database; no cut-off is given here.

Assays:
[1] = biological target: Signal transducer and activator of transcription 3 (Homo sapiens) (UniProt P40763); test: Inhibition of IFNgamma-stimulated STAT3 (unknown origin) activation expressed in human HeLa cells at 50 uM after 6 hrs by luciferase reporter gene assay relative to control; assay type: cell-based
Sequence of Signal transducer and activator of transcription 3 (Homo sapiens) (P40763 whole entry): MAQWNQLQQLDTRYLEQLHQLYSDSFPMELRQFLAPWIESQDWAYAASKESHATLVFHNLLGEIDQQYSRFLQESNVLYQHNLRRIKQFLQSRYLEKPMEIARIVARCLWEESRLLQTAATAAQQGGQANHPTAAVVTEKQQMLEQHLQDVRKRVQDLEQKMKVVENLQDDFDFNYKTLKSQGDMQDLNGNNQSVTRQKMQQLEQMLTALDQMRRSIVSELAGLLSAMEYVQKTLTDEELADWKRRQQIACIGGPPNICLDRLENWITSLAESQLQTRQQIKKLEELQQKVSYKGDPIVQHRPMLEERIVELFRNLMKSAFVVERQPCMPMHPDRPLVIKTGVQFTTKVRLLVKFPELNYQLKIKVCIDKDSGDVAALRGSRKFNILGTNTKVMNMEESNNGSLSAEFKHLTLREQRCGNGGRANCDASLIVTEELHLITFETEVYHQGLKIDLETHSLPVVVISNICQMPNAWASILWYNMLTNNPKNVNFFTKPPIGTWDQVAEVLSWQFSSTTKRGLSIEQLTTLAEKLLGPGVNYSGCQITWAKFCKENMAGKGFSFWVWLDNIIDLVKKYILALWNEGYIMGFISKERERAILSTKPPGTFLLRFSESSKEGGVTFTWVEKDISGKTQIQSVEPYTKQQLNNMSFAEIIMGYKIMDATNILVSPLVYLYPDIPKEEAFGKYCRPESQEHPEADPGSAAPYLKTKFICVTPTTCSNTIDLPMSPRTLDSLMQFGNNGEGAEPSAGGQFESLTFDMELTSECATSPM

[2] = system: MCF7; test: Antiproliferative activity against human MCF7 cells at 50 uM after 48 hrs by sulforhodamine B assay relative to control; assay type: functional; settings: MCF7, 48 h
[3] = system: K562; test: Antiproliferative activity against human K562 cells at 50 uM after 48 hrs by sulforhodamine B assay relative to control; assay type: functional; settings: for inhibition at 50 µM: K562, 48 h
[4] = biological target: T1, Nuclear factor erythroid 2-related factor 2 (Homo sapiens) (UniProt Q16236); test: Activation of Nrf2 in human HaCaT-ARE-Luc cells at 50 uM after 6 hrs by luciferase reporter gene assay relative to control; assay type: cell-based
T1 sequence (whole entry): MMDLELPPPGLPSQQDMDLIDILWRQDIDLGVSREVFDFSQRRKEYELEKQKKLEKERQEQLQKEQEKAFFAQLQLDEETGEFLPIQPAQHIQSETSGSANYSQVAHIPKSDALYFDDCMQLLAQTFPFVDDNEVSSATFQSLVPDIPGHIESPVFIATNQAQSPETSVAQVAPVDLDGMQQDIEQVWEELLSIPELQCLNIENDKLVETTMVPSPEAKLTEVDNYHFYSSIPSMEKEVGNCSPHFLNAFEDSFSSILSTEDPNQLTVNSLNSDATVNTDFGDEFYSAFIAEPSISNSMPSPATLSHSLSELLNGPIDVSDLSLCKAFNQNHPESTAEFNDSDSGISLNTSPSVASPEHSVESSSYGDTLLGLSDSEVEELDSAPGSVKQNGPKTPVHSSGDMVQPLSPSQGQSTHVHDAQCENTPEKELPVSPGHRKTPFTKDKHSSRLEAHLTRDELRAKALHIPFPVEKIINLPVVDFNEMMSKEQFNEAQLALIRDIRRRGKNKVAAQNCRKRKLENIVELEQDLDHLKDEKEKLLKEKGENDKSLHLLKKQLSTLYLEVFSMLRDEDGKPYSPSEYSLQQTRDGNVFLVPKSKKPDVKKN

[5] = system: HCT-15; test: Antiproliferative activity against human HCT15 cells at 50 uM after 48 hrs by sulforhodamine B assay relative to control; assay type: functional; settings: for inhibition at 50 µM: HCT-15, 48 h
[6] = system: PC-3; test: Antiproliferative activity against human PC3 cells at 50 uM after 48 hrs by sulforhodamine B assay relative to control; assay type: functional; settings: PC-3, 48 h
[7] = system: SK-LU-1; test: Antiproliferative activity against human SK-LU-1 cells at 50 uM after 48 hrs by sulforhodamine B assay relative to control; assay type: functional; settings: for inhibition at 50 µM: SK-LU-1, 48 h
[8] = Inhibition of TNFalpha-stimulated NFkappaB (unknown origin) expressed in mouse NIH-3T3-KBFLuc cells at 50 uM after 6 hrs by luciferase reporter gene assay relative to control; assay type: cell-based; settings: Homo sapiens
[9] = system: U-251; test: Antiproliferative activity against human U251 cells at 50 uM after 48 hrs by sulforhodamine B assay relative to control; assay type: functional; settings: for inhibition at 50 µM: U-251, 48 h
[10] = system: MCF7; test: Antiproliferative activity against human MCF7 cells after 48 hrs by sulforhodamine B assay; assay type: functional, cell-based; settings: MCF7, 48 h
[11] = system: PC-3; test: Antiproliferative activity against human PC3 cells after 48 hrs by sulforhodamine B assay; assay type: functional, cell-based; settings: PC-3, 48 h
[12] = system: HCT-15; test: Antiproliferative activity against human HCT15 cells after 48 hrs by sulforhodamine B assay; assay type: functional, cell-based; settings: HCT-15, 48 h
[13] = system: K562; test: Antiproliferative activity against human K562 cells after 48 hrs by sulforhodamine B assay; assay type: functional, cell-based; settings: K562, 48 h
[14] = system: U-251; test: Antiproliferative activity against human U251 cells after 48 hrs by sulforhodamine B assay; assay type: functional, cell-based; settings: U-251, 48 h
[15] = system: SK-LU-1; test: Antiproliferative activity against human SK-LU-1 cells after 48 hrs by sulforhodamine B assay; assay type: functional, cell-based; settings: SK-LU-1, 48 h

inhibition [1] | fold change (FC) [4] | IC50 [10] | IC50 [11] | IC50 [12] | IC50 [13] | IC50 [14] | IC50 [15] | Structure (SMILES) | inhibition at 50 µM [2] | inhibition at 50 µM [3] | inhibition at 50 µM [5] | inhibition at 50 µM [6] | inhibition at 50 µM [7] | inhibition [8] | inhibition at 50 µM [9] | inhibition [3] | inhibition [5] | inhibition [7] | inhibition [9]
2.5% | 1.3 |  |  |  |  |  |  | COc1ccc(C(=O)Oc2cc3c(C)ccc(C(C)C)c3cc2C)cc1 | 93.4% | 88.6% | 84% | 10.4% | 32.8% | 26.9% | 42.6% |  |  |  | 
1.8% | 1.7 |  |  |  |  |  |  | Cc1cc2c(C(C)C)ccc(C)c2cc1OC(=O)c1cccc(Cl)c1 | 11.4% |  |  | 4.2% | 11.6% | 25.6% | 0.8% | inactive | inactive |  | 
1.3% | 1.7 | 32.1 µM | 44 µM | 34 µM | 19.1 µM | 35.5 µM | 23.9 µM | Cc1cc2c(C(C)C)ccc(C)c2cc1OC(=O)c1ccc(Cl)cc1 | 76% | 95.4% | 82.2% | 81.1% | 100% | 15.5% | 92.8% |  |  |  | 
2% | 1.8 |  | 47.1 µM |  |  |  |  | Cc1cccc(C(=O)Oc2cc3c(C)ccc(C(C)C)c3cc2C)c1 | 50.4% | 17.1% | 27.6% | 52.4% |  | 4.8% | 5.2% |  |  | inactive | 
3.8% | 1.4 |  |  |  |  |  |  | CC1=C2CCC(C(=O)O)=C[C@@H]2[C@@H](C(C)C)CC1 |  |  |  |  |  | 5.9% |  |  |  |  | 
1.7% | 1.9 |  |  |  |  |  |  | CC1=CC[C@H](C(C)C)c2cc(C)c(OC(=O)c3cccc(C(F)(F)F)c3)cc21 | 86% | 45.5% | 15% | 25.4% | 18.3% | 4.4% | 29.3% |  |  |  | 
3.6% | 1.9 |  |  |  |  |  |  | CC1=CC[C@H](C(C)C)[C@H]2C=C(C(=O)O)CC=C12 |  |  |  |  |  | 12.3% |  |  |  |  | 
0.9% | 1.7 |  | 34 µM |  |  |  |  | Cc1cc2c(C(C)C)ccc(C)c2cc1OC(=O)c1ccc(C(F)(F)F)cc1 | 16.8% | 45.1% | 55.6% | 100% | 28.7% | 5.2% | 16.5% |  |  |  | 
0.9% | 1.9 |  |  |  |  |  |  | COc1c(C(C)C)cc(C)c2ccc(C)cc12 |  |  |  |  |  | 26.5% |  |  |  |  | 
3.2% | 1.5 |  |  |  |  |  |  | CC1=CC[C@H](C(C)C)c2cc(C)c(OC(=O)c3cccc([N+](=O)[O-])c3)cc21 | 29.3% | 15.9% | 45.9% | 36.9% | 60.4% | 3.5% | 44% |  |  |  | 
1.8% | 1.9 |  | 32.2 µM |  |  |  |  | COc1ccc(C(=O)Oc2cc3c(cc2C)[C@@H](C(C)C)CC=C3C)cc1 | 80.1% | 46.5% | 30.8% | 60.6% | 18.6% | 49.2% | 37% |  |  |  | 
3.5% | 1.6 |  |  |  |  |  |  | Cc1cc2c(C(C)C)ccc(C=O)c2cc1O |  |  |  |  |  | 40.1% |  |  |  |  | 
2.2% | 1.3 |  |  |  |  |  |  | CC1=C[C@](O)(C(C)C)C(=O)c2cc(C)c(O)cc21 |  |  |  |  |  | 28.8% |  |  |  |  | 
2.5% | 1.6 |  |  |  |  |  |  | CC1=CC[C@H](C(C)C)c2cc(C)c(OC(=O)c3ccc(C(F)(F)F)cc3)cc21 | 40.4% | 9% | 6.4% | 12.3% |  | 25.4% | 14.7% |  |  | inactive | 
2.9% | 1.8 |  |  |  |  |  |  | CC1=CC[C@H](C(C)C)c2cc(C(=O)O)ccc21 |  |  |  |  |  | 7.3% |  |  |  |  | 
2.7% | 1.9 |  |  |  |  |  |  | Cc1cc2c(C(C)C)ccc(C)c2cc1OC(=O)c1cccc(C(F)(F)F)c1 | 41.5% |  |  | 26.7% | 17.3% | 4.8% |  | inactive | inactive |  | inactive
3.3% | 1.6 |  |  |  |  |  |  | COc1cccc(C(=O)Oc2cc3c(cc2C)[C@@H](C(C)C)CC=C3C)c1 | 11.9% |  |  | 16.3% | 24.2% | 41.2% |  | inactive | inactive |  | inactive
2.4% | 6.6 |  |  |  |  |  |  | CC1=CC[C@H](C(C)C)c2cc(C)c(OC(=O)c3ccccc3)cc21 | 60.7% |  | 49.5% | 22.5% | 37% | 47.2% | 25.8% | inactive |  |  | 
1.6% | 8.5 |  | 42.5 µM | 56.3 µM |  |  | 42.9 µM | CC1=CC[C@H](C(C)C)c2cc(C)c(OC(=O)c3ccc([N+](=O)[O-])cc3)cc21 | 72.9% | 89% | 67.8% | 36.7% | 47.5% | 7.2% | 16.8% |  |  |  | 
3.8% | 1.7 |  |  |  |  |  |  | CC(C)[C@H]1CC[C@@](C)(O)c2ccc(C(=O)O)cc21 |  |  |  |  |  | 6.7% |  |  |  |  | 
2.7% | 1.3 |  |  |  |  |  |  | CC1=CC[C@H](C(C)C)c2cc(C)c(OC(=O)c3ccc(Cl)cc3)cc21 | 79.7% | 58.9% | 47.4% | 34.1% | 17.4% | 36.1% | 25.6% |  |  |  | 
2.3% | 1.7 |  |  |  |  |  |  | CC1=CC[C@H](C(C)C)c2cc(C)c(OC(=O)c3cccc(C)c3)cc21 | 54.9% |  | 5.3% | 38.6% |  | 44.2% | 16.8% | inactive |  | inactive | 
0.8% | 1.5 |  |  |  |  |  |  | COc1cccc(C(=O)Oc2cc3c(C)ccc(C(C)C)c3cc2C)c1 | 31.8% | 14.2% | 35.2% | 12.5% | 30.6% | 2.8% |  |  |  |  | inactive
0.5% | 1.9 |  |  |  |  |  |  | Cc1cc2c(C(C)C)ccc(C)c2cc1OC(=O)c1ccccc1 | 51% | 44.3% | 72% | 21.2% | 63% | 34.5% | 41.5% |  |  |  | 
1.5% | 1.4 |  |  |  |  |  |  | CC1=CC[C@H](C(C)C)c2cc(C)c(OC(=O)c3cccc(Cl)c3)cc21 | 40.4% |  | 5.3% | 23.4% | 30.6% | 22.5% | 0.9% | inactive |  |  | 
2.4% | 1.7 |  |  |  |  |  |  | Cc1ccc2c(c1)C(=O)C(C(C)C)=C[C@@]2(C)O |  |  |  |  |  | 11.1% |  |  |  |  | 
